For this experiment, the target named is T1, Solute carrier family 22 member 12 (Homo sapiens, UniProt Q96S37).
T1 sequence (Q96S37 whole entry): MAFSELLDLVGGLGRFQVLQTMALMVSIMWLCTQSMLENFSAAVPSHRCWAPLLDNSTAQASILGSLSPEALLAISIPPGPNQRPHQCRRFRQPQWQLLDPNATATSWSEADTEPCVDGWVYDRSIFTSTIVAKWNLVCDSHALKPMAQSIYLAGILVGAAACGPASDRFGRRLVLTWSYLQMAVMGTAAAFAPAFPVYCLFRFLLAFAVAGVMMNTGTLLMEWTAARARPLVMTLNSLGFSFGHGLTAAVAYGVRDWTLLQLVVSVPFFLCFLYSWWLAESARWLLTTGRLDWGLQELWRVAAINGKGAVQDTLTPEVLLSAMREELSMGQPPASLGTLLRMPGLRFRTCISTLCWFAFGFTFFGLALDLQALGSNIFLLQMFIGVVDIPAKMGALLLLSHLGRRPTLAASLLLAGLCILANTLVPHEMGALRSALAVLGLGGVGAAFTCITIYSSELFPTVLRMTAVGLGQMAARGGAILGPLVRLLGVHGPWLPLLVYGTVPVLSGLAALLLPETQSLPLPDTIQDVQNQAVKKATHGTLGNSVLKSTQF
In words: 150 microliter of cell lysate (100 mM of NaOH) was added in each well. Cell plate was placed on a vibrating plate and vibrated for 10 min at a speed of 600 rpm such that the cells were completely lysed. The cell plate was put in a centrifuge and spun for 5 min at a speed of 1000 rpm, then 45 microliter of supernatant was sucked out from each well and transferred to 96-well plate (Isoplate-96 Microplate from PerkinElmer).

The structures appear in SMILES notation.

As usually defined, the IC50 is the point on the concentration scale where inhibition reaches its midpoint. Read a high IC50 as weaker potency in that assay.

For the molecule `N#Cc1ccc(-c2ccccc2S(=O)(=O)CC2(CC(=O)O)CC2)cc1`, the IC50 is more than 1000 nM.

The values are drawn from ChEMBL document CHEMBL5726691, “Carboxylic acid compound, method for preparation thereof, and use thereof” (2018).
